According to patent US5681826A, “Saccharide composition with reduced reducibility, and preparation and uses thereof” (Kabushiki Kaisha Hayashibara Seibutsu Kagaku Kenkyujo, priority 1994, dated 1997):

How the values were obtained:
[1] = tested on: mice; test: Acute toxicity test (Experiment 8); conditions: oral, highest possible doses
Text: (§1) By using 7-week old dd-strain mice, the non-reducing saccharide preparation P I, P II, P III, P IV or P V was orally administered to the mice for acute toxicity test.

[2] = Acute toxicity test (Experiment 8); conditions: mouse, in vivo, po
Text: as §1

[3] = tested on: α-amylase; test: Hydrolysis by α-amylase derived from pig pancreas; format: in vitro ADME; conditions: for Saccharide composition of hydrolysate by α-amylase: G1 (glucose) / Saccharide composition of hydrolysate by α-amylase: G2 (maltose) / Saccharide composition of hydrolysate by α-amylase: G3 (maltotriose) / Saccharide composition of hydrolysate by α-amylase: P I / Saccharide composition of hydrolysate by α-amylase: P II: one unit, pH 6.9, 37°C., 18 hours
Experimental: (§2) The enzymatic reaction with the α-amylase was as follows: Dissolve 10 mg of a substrate in one ml of 50 mM phosphate buffer (pH 6.9), mix the resultant solution with one unit of the α-amylase, and incubate the resultant mixture at 37° C. for 18 hours. The enzymatic reaction with the α-glucosidase was conducted under the same conditions as in the case of α-amylase except that 50 mM acetate buffer (pH 4.0) was used as a buffer. The enzymatic reaction using the rat intestinal acetone powder was carried out under the same conditions as in the case of α-amylase except that 50 mM maleate buffer (pH 6.0) was used as a buffer. The saccharide compositions obtained by the α-amylase, α-glucosidase and rat intestinal acetone powder are respectively in Tables 6, 7 and 8.

[4] = Maillard reaction with glycine, absorbance at 480 nm; format: physicochemical; conditions: for Coloration degree (480 nm): one % glycine, 10% saccharide, pH 7.0, 100°C., 90 min, 1-cm cell
Experimental: A solution, containing one % glycine and 10% of a saccharide preparation PI, P II, P III, P IV or P V in Experiment 4 and 50 mM phosphate buffer (pH 7.0), was kept at 100° C. for 90 min, followed by cooling the resultant solution, and determining for absorbance at a wave length of 480 nm in a 1-cm cell. As a control, maltotriose, maltotetraose, maltopentaose, maltohexaose and maltoheptaose, as a material for the saccharide preparations, were similarly treated as above, and measured for absorbance at a wave length of 480 nm.
A solution, containing one % of glycine, 10% of a high-purity trehalose preparation with a purity of 99.5%, d.s.b., obtained by the method in Experiment 17, and 50 mM phosphate buffer (pH 7.0), was kept at 100° C. for 90 min, followed by cooling the resultant solution and determining the absorbance at a wave length of 480 nm in a 1-cm cell. As a control, glucose and maltose were similarly treated as above, and the resultants were determined for absorbance at a wave length of 480 nm.

[5] = Hydrolysis by rat intestinal acetone powder; format: in vitro ADME; conditions: pH 6.0, 37°C., 18 hours
Experimental: as §2

[6] = Reducing power on the Somogyi-Nelson's method expressed by DE; format: physicochemical; conditions: d.s.b.
Experimental: The reducing powders of these novel high-purity saccharides were determined on the Somogyi-Nelson's method and expressed by DE.

[7] = tested on: glucoamylase; test: Enzymatic hydrolysis by glucoamylase; format: biochemical; conditions: for Glucose / Molecular ratio (Glucose/Trehalose) / Trehalose: one unit glucoamylase, pH 4.5, 40°C., 6 hours
Experimental: Fifty mg aliquots of non-reducing saccharide preparations P I, P II, P III, P IV and P V in Experiment 4 were respectively dissolved in one ml of 50 mM acetate buffer (pH 4.5), admixed with one unit of glucoamylase commercialized by Seikagaku-Kogyo Co., Ltd., Tokyo, Japan, to effect enzymatic hydrolysis at 40° C. for 6 hours. HPLC analysis only detected glucose and trehalose in all resultant mixtures. The percentages and the molecular ratios of glucose to trehalose in each saccharide are in Table 5.

[8] = molecular target: T1, trehalose-releasing enzyme (Rhizobium sp. M-11, UniProt Q53238); test: Action of trehalose-releasing enzyme on α-glycosyltrehalose and maltooligosaccharides (Table 13); format: biochemical; conditions: 20% substrate, 2 units/g, 40°C., pH 7.0, 48 hours; label = substrate
T1 construct: M-11 culture
T1 sequence (Q53238 1-596): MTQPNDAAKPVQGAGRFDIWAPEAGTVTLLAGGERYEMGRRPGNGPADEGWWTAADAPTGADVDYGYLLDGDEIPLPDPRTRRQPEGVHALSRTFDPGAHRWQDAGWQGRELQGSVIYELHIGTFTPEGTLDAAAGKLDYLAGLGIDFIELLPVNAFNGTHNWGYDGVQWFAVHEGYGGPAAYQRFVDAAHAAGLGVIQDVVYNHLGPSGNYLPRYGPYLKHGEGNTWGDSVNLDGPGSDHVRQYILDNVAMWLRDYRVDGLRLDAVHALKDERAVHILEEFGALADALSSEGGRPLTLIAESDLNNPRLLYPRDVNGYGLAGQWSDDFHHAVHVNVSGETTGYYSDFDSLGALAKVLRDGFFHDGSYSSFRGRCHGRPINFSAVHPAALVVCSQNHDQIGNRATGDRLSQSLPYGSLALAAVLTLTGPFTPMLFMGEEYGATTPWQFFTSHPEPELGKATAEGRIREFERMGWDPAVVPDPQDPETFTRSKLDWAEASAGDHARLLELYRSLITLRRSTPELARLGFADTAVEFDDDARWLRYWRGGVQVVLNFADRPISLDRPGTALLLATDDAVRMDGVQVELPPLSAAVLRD
Experimental: An aqueous solution containing 20%, d.s.b., of one of the above 5 non-reducing saccharide preparations, namely α-glycosyltrehalose preparations, was prepared, followed by mixing it with 2 units/g substrate, d.s.b., of the purified trehalose-releasing enzyme obtained in Experiment 15, and subjecting the resultant to an enzymatic reaction at 40° C. and pH 7.0 for 48 hours. The resultant each reaction mixture was desalted, and analyzed for saccharide composition on HPLC using "WAKOBEADS WB-T-330 column", a column of Wako Pure Chemical Industries Ltd., Tokyo, Japan. As a control, a fresh preparation of the same trehalose-releasing enzyme was allowed to act on maltotriose, maltotetraose, maltopentaose, maltohexaose or maltoheptaose, and the resultant each reaction mixture was analyzed for saccharide composition on HPLC.

[9] = tested on: α-glucosidase; test: Hydrolysis by α-glucosidase derived from rice; format: biochemical; conditions: pH 4.0, 37°C., 18 hours
Experimental: as §2

[10] = tested on: β-amylase; test: Hydrolysis by β-amylase; format: biochemical

SMILES	Mortality [1]	LD50 [2] [mg/kg]	Saccharide composition of hydrolysate by α-amylase: G1 (glucose) [3]	Saccharide composition of hydrolysate by α-amylase: G2 (maltose) [3]	Saccharide composition of hydrolysate by α-amylase: G3 (maltotriose) [3]	Saccharide composition of hydrolysate by α-amylase: P I [3]	Saccharide composition of hydrolysate by α-amylase: P II [3]	Coloration degree relative to corresponding material maltooligosaccharides [4]	Coloration degree (480 nm) [4]	Saccharide composition of hydrolysate by rat intestinal acetone powder: Glucose [5] [%]	Saccharide composition of hydrolysate by rat intestinal acetone powder: Other saccharides [5] [%]	Saccharide composition of hydrolysate by rat intestinal acetone powder: Trehalose [5] [%]	DE (reducing power) [6]	Hydrolysis by glucoamylase [7]	Glucose [7] [%]	Molecular ratio (Glucose/Trehalose) [7]	Trehalose [7] [%]	Percentage of reducing saccharide released (glucose, maltose, maltotriose, maltotetraose or maltopentaose) [8] [%]	Percentage of trehalose released [8] [%]	Saccharide composition of hydrolysate by α-glucosidase: Glucose [9] [%]	other results
OC[C@H]1O[C@H](O[C@H]2O[C@H](CO)[C@@H](O[C@H]3O[C@H](CO)[C@@H](O[C@H]4O[C@H](CO)[C@@H](O)[C@H](O)[C@H]4O)[C@H](O)[C@H]3O)[C@H](O)[C@H]2O)[C@H](O)[C@@H](O)[C@@H]1O [P II, α-maltosyltrehalose]	no mouse died	≥ 50000	0	0.8	0.4	0	98.8	3-6%	0.018	52.5	0.4	47.1	0.35	hydrolyzed into 2 glucose molecules and one trehalose molecule	52.0	2.06	48.0	44.4	44.3	52.1	Hydrolysis by α-amylase [3]: not substantially hydrolyzed; Saccharide composition of hydrolysate by α-glucosidase: Other saccharides [9]: 0.3%; Saccharide composition of hydrolysate by α-glucosidase: Trehalose [9]: 47.6%; Hydrolysis by β-amylase [10]: not hydrolyzed
OC[C@H]1O[C@H](O[C@H]2O[C@H](CO)[C@@H](O[C@H]3O[C@H](CO)[C@@H](O[C@H]4O[C@H](CO)[C@@H](O[C@H]5O[C@H](CO)[C@@H](O[C@H]6O[C@H](CO)[C@@H](O[C@H]7O[C@H](CO)[C@@H](O)[C@H](O)[C@H]7O)[C@H](O)[C@H]6O)[C@H](O)[C@H]5O)[C@H](O)[C@H]4O)[C@H](O)[C@H]3O)[C@H](O)[C@H]2O)[C@H](O)[C@@H](O)[C@@H]1O [P V, α-maltopentaosyltrehalose]	no mouse died	≥ 50000	1.0	8.6	35.3	10.2	44.9	3-6%	0.015	73.4	0.1	26.5	0.23	hydrolyzed into 5 glucose molecules and one trehalose molecule	72.9	5.11	27.1	70.6	29.1	71.4	Saccharide composition of hydrolysate by α-glucosidase: Other saccharides [9]: 0.3%; Saccharide composition of hydrolysate by α-glucosidase: Trehalose [9]: 28.3%; Hydrolysis by β-amylase [10]: 2 maltose molecules and one P I molecule
OC[C@H]1O[C@H](O[C@H]2O[C@H](CO)[C@@H](O[C@H]3O[C@H](CO)[C@@H](O[C@H]4O[C@H](CO)[C@@H](O[C@H]5O[C@H](CO)[C@@H](O)[C@H](O)[C@H]5O)[C@H](O)[C@H]4O)[C@H](O)[C@H]3O)[C@H](O)[C@H]2O)[C@H](O)[C@@H](O)[C@@H]1O [P III, α-maltotriosyltrehalose]	no mouse died	≥ 50000	1.2	33.0	0	61.0	4.8	3-6%	0.012	62.0	0.4	37.6	0.10	hydrolyzed into 3 glucose molecules and one trehalose molecule	61.4	3.02	38.6	60.0	39.5	61.7	Hydrolysis by α-amylase [3]: hydrolyzed by the α-amylase into lower molecular weight oligosaccharides; Saccharide composition of hydrolysate by α-glucosidase: Other saccharides [9]: 0.2%; Saccharide composition of hydrolysate by α-glucosidase: Trehalose [9]: 38.1%; Hydrolysis by β-amylase [10]: one maltose molecule and one P I molecule
OC[C@H]1O[C@H](O[C@H]2O[C@H](CO)[C@@H](O[C@H]3O[C@H](CO)[C@@H](O[C@H]4O[C@H](CO)[C@@H](O[C@H]5O[C@H](CO)[C@@H](O[C@H]6O[C@H](CO)[C@@H](O)[C@H](O)[C@H]6O)[C@H](O)[C@H]5O)[C@H](O)[C@H]4O)[C@H](O)[C@H]3O)[C@H](O)[C@H]2O)[C@H](O)[C@@H](O)[C@@H]1O [P IV, α-maltotetraosyltrehalose]	no mouse died	≥ 50000	1.6	7.5	40.4	47.2	3.3	3-6%	0.016	68.8	0.4	30.8	0.27	hydrolyzed into 4 glucose molecules and one trehalose molecule	68.3	4.09	31.7	65.5	34.2	69.5	Hydrolysis by α-amylase [3]: hydrolyzed by the α-amylase into lower molecular weight oligosaccharides; Saccharide composition of hydrolysate by α-glucosidase: Other saccharides [9]: 0.3%; Saccharide composition of hydrolysate by α-glucosidase: Trehalose [9]: 30.2%; Hydrolysis by β-amylase [10]: one maltose molecule and one P II molecule
